The source made the active and inactive calls.
Experiments:
[1] = target: T1, Polyadenylate-binding protein 1 (Homo sapiens, UniProt P11940); experiment: MLLE binding blockers, Cy5 peptide tracer – biochemical, fluorescence polarization, Cy5-PAM2 peptide, secondary, miRNA deadenylation inhibitor project, dose response (AID 602260); format: functional; conditions: read-out: IC50_Mean
Cysteine protease ATG4B = Cysteine protease ATG4B (Homo sapiens, UniProt Q9Y4P1); format: functional;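 also: Fluorescence-based dose-response confirmation assay measuring inhibition of ATG4B activity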
[2] = target: T1, Polyadenylate-binding protein 1; experiment: MLLE domain peptide-binding blockers, IC50 – biochemical, fluorescence polarization, FITC-PAM2 peptide, dose response (AID 602259); format: functional; conditions: read-out: IC50_Mean
Phospholipase A2 = Phospholipase A2 (Homo sapiens, UniProt P04054); format: functional;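 also: confirmatory dose-response counterscreen on phospholipase A2, testing hits that came from an ultra-high-throughput screen for ATG4B inhibitors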
[3] = target: Glucose-6-phosphate 1-dehydrogenase (Homo sapiens, UniProt P11413); experiment: inhibition of Homo sapiens G6PD, dose series – biochemical, fluorescence, selectivity assay for P. falciparum G6PD inhibitor project, dose response (AID 504792); format: functional
[4] = target: T2, Long-chain-fatty-acid--AMP ligase FadD28 (Mycobacterium tuberculosis, UniProt P9WQ59); experiment: Fluorescence polarization aasay to screen for inhibitors that compete for the binding of FadD28 to a bisubstrate Measured in Biochemical System Using Plate Reader - 2147-01_Inhibitor_Dose_CherryPick_Activity.; format: functional, Mycobacterium tuberculosis H37Rv
T2 sequence (P9WQ59 whole entry): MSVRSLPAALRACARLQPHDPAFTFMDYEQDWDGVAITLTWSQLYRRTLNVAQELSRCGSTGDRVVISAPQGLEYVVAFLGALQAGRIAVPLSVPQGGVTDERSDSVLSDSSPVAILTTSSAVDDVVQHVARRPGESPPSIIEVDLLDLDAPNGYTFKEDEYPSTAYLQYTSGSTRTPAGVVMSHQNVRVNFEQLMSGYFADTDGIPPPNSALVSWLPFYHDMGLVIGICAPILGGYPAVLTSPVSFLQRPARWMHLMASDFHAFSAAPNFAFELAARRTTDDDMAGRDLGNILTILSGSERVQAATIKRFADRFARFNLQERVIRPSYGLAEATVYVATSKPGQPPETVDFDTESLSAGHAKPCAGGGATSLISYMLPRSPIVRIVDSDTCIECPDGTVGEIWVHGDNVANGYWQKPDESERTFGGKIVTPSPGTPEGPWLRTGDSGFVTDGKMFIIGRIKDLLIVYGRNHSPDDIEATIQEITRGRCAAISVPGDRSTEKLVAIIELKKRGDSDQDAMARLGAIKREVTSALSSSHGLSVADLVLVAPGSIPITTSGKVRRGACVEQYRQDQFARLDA

Hexokinase HKDC1 = target: T3, Hexokinase HKDC1 (Homo sapiens, UniProt Q2TB90); experiment: inhibition of HKDC1 glucose phosphorylation – biochemical, W721R variant, dose response (AID 504729); format: functional
T3 sequence (Q2TB90 whole entry): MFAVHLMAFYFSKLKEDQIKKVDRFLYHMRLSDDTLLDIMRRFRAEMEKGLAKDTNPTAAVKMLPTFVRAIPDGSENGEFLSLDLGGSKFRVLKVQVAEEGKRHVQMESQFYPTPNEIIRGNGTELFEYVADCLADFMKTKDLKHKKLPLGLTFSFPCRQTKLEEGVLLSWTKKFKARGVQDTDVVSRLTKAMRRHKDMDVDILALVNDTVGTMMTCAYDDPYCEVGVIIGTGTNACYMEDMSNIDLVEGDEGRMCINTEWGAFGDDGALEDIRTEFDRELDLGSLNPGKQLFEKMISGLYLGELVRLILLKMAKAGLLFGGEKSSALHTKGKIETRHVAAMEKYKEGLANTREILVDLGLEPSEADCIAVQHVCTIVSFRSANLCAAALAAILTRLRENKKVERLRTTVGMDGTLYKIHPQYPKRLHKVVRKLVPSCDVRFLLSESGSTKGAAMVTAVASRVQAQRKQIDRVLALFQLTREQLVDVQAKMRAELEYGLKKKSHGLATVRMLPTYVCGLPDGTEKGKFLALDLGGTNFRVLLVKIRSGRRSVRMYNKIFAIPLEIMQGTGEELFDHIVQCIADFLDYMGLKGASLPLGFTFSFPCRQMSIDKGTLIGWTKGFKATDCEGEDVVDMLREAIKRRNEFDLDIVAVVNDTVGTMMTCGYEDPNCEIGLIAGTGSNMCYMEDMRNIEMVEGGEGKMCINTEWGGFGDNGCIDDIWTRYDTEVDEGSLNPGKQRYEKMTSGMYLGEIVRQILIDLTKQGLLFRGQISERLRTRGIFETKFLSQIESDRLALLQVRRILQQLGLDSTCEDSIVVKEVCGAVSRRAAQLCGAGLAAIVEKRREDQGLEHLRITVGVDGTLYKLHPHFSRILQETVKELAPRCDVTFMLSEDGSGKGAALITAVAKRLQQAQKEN

Genome polyprotein = Genome polyprotein (dengue virus type 2, UniProt P29990); experiment: flavivirus cap methylation enzyme inhibition – biochemical, confirmation dose response, primary screen (AID 588689); format: functional
[5] = target: Voltage-gated inwardly rectifying potassium channel KCNH2 (Homo sapiens, UniProt Q12809); conditions: Potency;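 also: confirmatory quantitative high-throughput screen measuring inhibition of hERG channel activity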
[6] = target: Dual specificity tyrosine-phosphorylation-regulated kinase 1A (Rattus norvegicus, UniProt Q63470); format: biochemical, Homo sapiens

T1 sequence (P11940 whole entry): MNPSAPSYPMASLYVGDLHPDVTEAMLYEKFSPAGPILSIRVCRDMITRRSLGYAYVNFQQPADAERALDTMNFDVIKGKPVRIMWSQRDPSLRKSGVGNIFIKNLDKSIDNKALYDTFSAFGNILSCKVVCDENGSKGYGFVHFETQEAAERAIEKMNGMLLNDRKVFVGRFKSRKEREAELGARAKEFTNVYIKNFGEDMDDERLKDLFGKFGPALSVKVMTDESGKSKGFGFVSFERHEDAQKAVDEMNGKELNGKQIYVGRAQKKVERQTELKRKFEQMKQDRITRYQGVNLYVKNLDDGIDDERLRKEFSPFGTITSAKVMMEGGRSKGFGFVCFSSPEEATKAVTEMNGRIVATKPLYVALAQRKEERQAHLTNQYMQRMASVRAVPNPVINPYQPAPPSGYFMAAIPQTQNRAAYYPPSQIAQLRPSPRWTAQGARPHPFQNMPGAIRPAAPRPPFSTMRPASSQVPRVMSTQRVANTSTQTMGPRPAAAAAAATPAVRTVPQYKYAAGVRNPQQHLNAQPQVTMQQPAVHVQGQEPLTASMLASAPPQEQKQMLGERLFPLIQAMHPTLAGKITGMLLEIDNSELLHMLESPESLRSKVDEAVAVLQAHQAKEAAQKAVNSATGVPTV
Chain of Phospholipase A2 (P04054 whole entry): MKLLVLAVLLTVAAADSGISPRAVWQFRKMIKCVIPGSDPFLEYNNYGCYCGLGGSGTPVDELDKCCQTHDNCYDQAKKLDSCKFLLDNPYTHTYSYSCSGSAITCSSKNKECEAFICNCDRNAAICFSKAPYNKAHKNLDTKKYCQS
Chain of Glucose-6-phosphate 1-dehydrogenase (P11413 whole entry): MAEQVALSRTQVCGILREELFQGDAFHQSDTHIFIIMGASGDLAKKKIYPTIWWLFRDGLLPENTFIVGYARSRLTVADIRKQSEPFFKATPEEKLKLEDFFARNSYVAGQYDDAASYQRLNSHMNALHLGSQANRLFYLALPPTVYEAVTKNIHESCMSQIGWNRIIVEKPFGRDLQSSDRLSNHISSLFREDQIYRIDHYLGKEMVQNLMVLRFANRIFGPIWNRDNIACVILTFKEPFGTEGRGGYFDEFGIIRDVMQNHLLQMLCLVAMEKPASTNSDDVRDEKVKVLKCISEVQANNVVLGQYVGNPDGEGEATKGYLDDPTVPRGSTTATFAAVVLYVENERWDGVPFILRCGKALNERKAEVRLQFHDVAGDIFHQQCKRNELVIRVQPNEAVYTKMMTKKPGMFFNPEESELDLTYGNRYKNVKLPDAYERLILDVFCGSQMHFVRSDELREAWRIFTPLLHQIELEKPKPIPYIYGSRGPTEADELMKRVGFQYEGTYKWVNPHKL
Chain of Genome polyprotein (P29990 2492-3391 limits assumed): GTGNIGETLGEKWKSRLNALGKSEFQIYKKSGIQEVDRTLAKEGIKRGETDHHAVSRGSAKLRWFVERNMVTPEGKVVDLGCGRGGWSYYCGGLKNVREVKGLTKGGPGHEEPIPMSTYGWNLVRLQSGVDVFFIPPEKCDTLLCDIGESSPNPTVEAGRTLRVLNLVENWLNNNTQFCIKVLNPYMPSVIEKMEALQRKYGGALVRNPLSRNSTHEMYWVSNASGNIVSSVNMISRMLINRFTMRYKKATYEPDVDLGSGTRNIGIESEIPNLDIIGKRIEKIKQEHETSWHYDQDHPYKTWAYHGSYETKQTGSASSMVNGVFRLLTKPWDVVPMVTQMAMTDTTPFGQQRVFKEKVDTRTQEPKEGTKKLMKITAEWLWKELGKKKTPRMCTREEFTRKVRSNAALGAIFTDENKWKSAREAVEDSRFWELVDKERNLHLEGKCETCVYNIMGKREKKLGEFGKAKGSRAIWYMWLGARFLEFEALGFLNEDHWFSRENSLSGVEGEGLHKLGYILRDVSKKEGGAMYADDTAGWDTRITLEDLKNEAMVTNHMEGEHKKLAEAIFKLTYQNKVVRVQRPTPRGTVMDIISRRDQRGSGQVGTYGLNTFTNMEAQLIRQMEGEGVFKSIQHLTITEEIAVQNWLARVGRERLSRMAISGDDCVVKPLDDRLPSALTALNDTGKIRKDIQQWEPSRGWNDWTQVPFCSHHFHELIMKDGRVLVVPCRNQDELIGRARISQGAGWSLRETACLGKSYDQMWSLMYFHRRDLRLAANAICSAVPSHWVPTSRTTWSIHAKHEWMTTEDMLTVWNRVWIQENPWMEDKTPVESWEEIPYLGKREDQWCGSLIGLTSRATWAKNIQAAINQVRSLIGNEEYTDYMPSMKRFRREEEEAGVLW
Chain of Voltage-gated inwardly rectifying potassium channel KCNH2 (Q12809 whole entry): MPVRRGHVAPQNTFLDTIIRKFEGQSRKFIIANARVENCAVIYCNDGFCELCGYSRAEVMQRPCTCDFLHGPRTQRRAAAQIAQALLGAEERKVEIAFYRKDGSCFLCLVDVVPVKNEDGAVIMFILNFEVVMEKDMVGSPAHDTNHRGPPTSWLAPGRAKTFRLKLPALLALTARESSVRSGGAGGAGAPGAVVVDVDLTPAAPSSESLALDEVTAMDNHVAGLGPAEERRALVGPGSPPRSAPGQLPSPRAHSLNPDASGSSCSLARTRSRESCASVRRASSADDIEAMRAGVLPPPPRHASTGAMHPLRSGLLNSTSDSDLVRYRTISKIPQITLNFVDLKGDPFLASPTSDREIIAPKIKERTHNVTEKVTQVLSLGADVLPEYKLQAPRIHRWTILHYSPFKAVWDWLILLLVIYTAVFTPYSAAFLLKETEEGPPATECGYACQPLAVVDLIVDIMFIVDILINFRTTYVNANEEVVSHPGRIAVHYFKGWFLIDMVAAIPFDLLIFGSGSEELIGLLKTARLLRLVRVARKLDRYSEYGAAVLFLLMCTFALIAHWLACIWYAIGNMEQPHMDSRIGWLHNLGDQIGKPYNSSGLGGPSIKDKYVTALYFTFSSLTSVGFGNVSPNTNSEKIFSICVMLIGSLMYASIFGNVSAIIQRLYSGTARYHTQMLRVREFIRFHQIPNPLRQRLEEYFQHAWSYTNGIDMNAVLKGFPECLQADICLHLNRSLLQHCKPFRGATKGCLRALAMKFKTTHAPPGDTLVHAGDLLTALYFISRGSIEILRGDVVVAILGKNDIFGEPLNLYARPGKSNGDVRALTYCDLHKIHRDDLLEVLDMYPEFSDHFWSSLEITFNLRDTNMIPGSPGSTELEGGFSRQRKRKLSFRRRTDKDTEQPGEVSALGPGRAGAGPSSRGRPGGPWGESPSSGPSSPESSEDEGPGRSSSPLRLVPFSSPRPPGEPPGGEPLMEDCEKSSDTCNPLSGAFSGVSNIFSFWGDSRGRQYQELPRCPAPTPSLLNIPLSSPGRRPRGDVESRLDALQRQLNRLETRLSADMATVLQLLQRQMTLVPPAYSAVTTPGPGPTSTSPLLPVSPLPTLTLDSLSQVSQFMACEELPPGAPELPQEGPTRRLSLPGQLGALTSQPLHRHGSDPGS
Chain of Cysteine protease ATG4B (Q9Y4P1 whole entry, the tested form may be a part): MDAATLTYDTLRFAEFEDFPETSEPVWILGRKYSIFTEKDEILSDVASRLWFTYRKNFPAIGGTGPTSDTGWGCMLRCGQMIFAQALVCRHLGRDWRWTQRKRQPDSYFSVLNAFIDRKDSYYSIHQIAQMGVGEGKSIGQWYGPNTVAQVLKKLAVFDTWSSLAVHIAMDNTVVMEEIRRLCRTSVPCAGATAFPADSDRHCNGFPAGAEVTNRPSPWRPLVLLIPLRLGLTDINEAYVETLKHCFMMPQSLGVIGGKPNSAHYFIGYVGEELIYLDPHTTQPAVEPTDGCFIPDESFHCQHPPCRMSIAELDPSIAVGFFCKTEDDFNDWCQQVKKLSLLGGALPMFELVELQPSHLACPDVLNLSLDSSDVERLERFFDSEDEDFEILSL

`Cc1ccc(-n2c(SCC(=O)N/N=C/c3c(C)nn(-c4ccccc4)c3C)nc3ccccc3c2=O)cc1` was tested, and the IC50 [1] was > 66 µM (inactive), the IC50 (Cysteine protease ATG4B) was 14.2 µM (active) and the IC50 [2] was > 66 µM (inactive). For the same compound, the IC50 (Phospholipase A2) was 1.86 µM (active).

`Nc1ccc(S(=O)(=O)c2cc(O)c3ccccc3c2O)cc1` was tested, and the IC50 [3] was > 80 µM (inactive), the AC50 [4] was > 100 µM (inactive) and the IC50 (Hexokinase HKDC1) was 18.1 µM (active). For the same compound, the IC50 (Genome polyprotein) was 5.47 µM (active).

`CCc1ccc(C(c2ccc(CC)cc2)C(Cl)Cl)cc1` was tested, and the AC50 [5] was 22.4 µM (inconclusive).

`COc1ccc2c3c([nH]c2c1)C(C)N(CCC(=O)NN)CC3` (stereo not given) was tested, and the AC50 [6] was 1.45 µM (active).

— ChEMBL document CHEMBL1201862, “PubChem BioAssay data set” (2004)
